How the values were obtained:
[1] = Biodistribution with post-administration of albumin-binding competitor IPBA; type: in vivo, normal mice (ddY); conditions: normal mice, IPBA at 1 h postinjection, 10 molar equivalent of blood albumin; except in the kidney
Method: To evaluate the effects of an albumin-binding competitor (sodium salt of IPBA) in normal mice, [^125I]5 and [^211At]6 were intravenously co-administered. At 1 h postinjection of the radiolabeled compounds, IPBA (3.4 mg, 11 µmol) dissolved in saline at a 10 molar equivalent of blood albumin was administered. Mice were sacrificed at 65 min, 70 min, 2 h, 4 h, 12 h, and 24 h postinjection of [^125I]5 and [^211At]6. Tissues of interest were treated, and the radioactivity was measured in the same manner as above. Data are also shown as %ID/g or %ID.

[2] = test system: PSMA-expressing LNCaP cells; test: Cellular uptake and internalization in LNCaP cells, blocking with 2-PMPA; type: cell-based; conditions: 2-PMPA 100 µM
Method: Cellular uptake experiments were performed according to a previous report with slight modifications. LNCaP cells expressing PSMA were cultured in RPMI 1640 medium containing 10% fetal bovine serum (FBS) and 1% penicillin–streptomycin on 6-well culture plates (containing 5 × 10^5 cells/well) for 24 h in a humidified atmosphere (5% CO2) incubator at 37 °C. After removing the medium and washing with phosphate-buffered saline (PBS) (−) once, a mixed solution of [^125I]5 and [^211At]6, [^125I]5 and [^67Ga]Ga-PSMA-617, and [^125I]5 and [^67Ga]5 in 1.0 mL of medium without FBS was added (3.7 kBq/each tracer/well). The final concentrations of the radioligands for [^125I]5, [^211At]6, and [^67Ga]5 were 45.5 pM, 0.2 pM, and 2.5 pM, respectively. These solutions containing radioligands were diluted in saline containing 0.05% (w/v) bovine serum albumin (BSA) to prevent adsorption to tubes or plates and further diluted with medium to 0.00125% as the final BSA concentration. After incubation for 10, 60, and 120 min, the medium from each well was removed, and the cells were washed twice with ice-cold PBS (−); the surface of the cells was washed twice with ice-cold 0.2 M glycine buffer (pH 3.0). The cells were lysed using a 1 M NaOH aqueous solution. The radioactivity of ^67Ga,^125I and ^211At in the 1 M NaOH aqueous solution was determined and defined as the internalized radioligand fraction using an auto well gamma counter (ARC-8001, Hitachi, Ltd., Tokyo, Japan) according to a previous paper. The radioactivity was determined with an auto well gamma counter and corrected for background radiation and physical decay during counting. A window from 16 to 69 keV was used for counting ^125I, and a window from 70 to 120 keV was used for counting ^211At. Correlation factors to eliminate any crossover of ^125I activity in the ^211At counts were determined by measuring the ^125I standard in each window. More than one week after the experiments, the radioactivity counts of ^125I were measured after the decay of ^211At. The protein amount in cells was quantified using a BCA Protein Assay Kit (Nacalai Tesque, Kyoto, Japan) according to the manufacturer’s protocol. All data were expressed as percent dose per milligram protein (%dose/mg protein). In blocking experiments, a selective inhibitor of the PSMA, (2S)-2-(phosphonomethyl)pentanedioic acid (2-PMPA) (final concentration 100 µM), was added to each well with tracers. After incubation for 10, 60, and 120 min, radioactivity and protein concentration were determined in the same manner as the experiment without the blocking agent.

Effect of IPBA administration on radioactivity levels in tissues [1]: significantly decreased
Structure (SMILES): O=C([O-])CN1CCN(CC(=O)[O-])CCN(CC(=O)NC(CCCCNC(=O)CCCc2ccc([125I])cc2)C(=O)NCC2CCC(C(=O)NC(Cc3ccc4ccccc4c3)C(=O)NCCCCC(NC(=O)NC(CCC(=O)O)C(=O)O)C(=O)O)CC2)CCN(CC(=O)[O-])CC1.[Ga+3] (centres unmarked) [[^125I]5]
Effect of excess 2-PMPA on cellular uptake [2]: significantly reduced
